According to ChEMBL document CHEMBL1146255, “Synthesis of bisdesmosidic kryptogenyl saponins using the 'random glycosylation' strategy and evaluation of their antitumor activity” (Bioorg Med Chem Lett, 2007):

Assays:
Conditions in all cases: Homo sapiens
HeLa [1] = assay: Antitumor activity against HeLa cells at 1 uM by MTT assay; type: functional
HeLa [2] = assay: Antitumor activity against HeLa cells at 10 nM by MTT assay; type: functional
HeLa [3] = assay: Antitumor activity against HeLa cells by MTT assay; type: functional, cell-based
HeLa [4] = assay: Antitumor activity against HeLa cells at 0.1 uM by MTT assay; type: functional
HeLa [5] = assay: Antitumor activity against HeLa cells at 10 uM by MTT assay; type: functional

Row | Structure (SMILES) | inhibition at 1 µM (HeLa [1]) [%] | inhibition at 0.01 µM (HeLa [2]) [%] | IC50 (HeLa [3]) [µM] | inhibition at 0.1 µM (HeLa [4]) [%] | inhibition at 10 µM (HeLa [5]) [%]
1 | C[C@H](CCC(=O)[C@@H](C)[C@H]1C(=O)C[C@H]2[C@@H]3CC=C4C[C@@H](O[C@@H]5OC[C@H](O)[C@H](O)[C@H]5O)CC[C@]4(C)[C@H]3CC[C@]12C)CO[C@@H]1OC[C@H](O)[C@H](O)[C@H]1O | 4.34 | 0.26 | 4.25 | 1.64 | 62
2 | C[C@H](CCC(=O)[C@@H](C)[C@H]1C(=O)C[C@H]2[C@@H]3CC=C4C[C@@H](O[C@@H]5O[C@@H](C)[C@H](O)[C@@H](O)[C@H]5O)CC[C@]4(C)[C@H]3CC[C@]12C)CO[C@@H]1O[C@@H](C)[C@H](O)[C@@H](O)[C@H]1O | 21.2 | 7.19 | > 10 | 14.3 | 26.2
3 | C[C@H](CCC(=O)[C@@H](C)[C@H]1C(=O)C[C@H]2[C@@H]3CC=C4C[C@@H](O[C@@H]5OC[C@@H](O)[C@H](O)[C@H]5O)CC[C@]4(C)[C@H]3CC[C@]12C)CO[C@@H]1O[C@H](CO)[C@@H](O)[C@H](O)[C@H]1O | 23 | 17.5 | > 10 | 19.3 | 30.9
4 | C[C@H](CCC(=O)[C@@H](C)[C@H]1C(=O)C[C@H]2[C@@H]3CC=C4C[C@@H](O[C@@H]5O[C@@H](C)[C@H](O)[C@@H](O)[C@H]5O)CC[C@]4(C)[C@H]3CC[C@]12C)CO[C@@H]1OC[C@H](O)[C@H](O)[C@H]1O | 6.34 | 1.35 | 8.36 | 6.93 | 60.1
5 | C[C@H](CCC(=O)[C@@H](C)[C@H]1C(=O)C[C@H]2[C@@H]3CC=C4C[C@@H](O[C@@H]5OC[C@H](O)[C@H](O)[C@H]5O)CC[C@]4(C)[C@H]3CC[C@]12C)CO[C@@H]1O[C@@H](CO)[C@H](O)[C@@H](O)[C@@H]1O | 4.79 | 3.25 | > 10 | 3.84 | 9.71
6 | C[C@H](CCC(=O)[C@@H](C)[C@H]1C(=O)C[C@H]2[C@@H]3CC=C4C[C@@H](O[C@@H]5OC[C@H](O)[C@H](O)[C@H]5O)CC[C@]4(C)[C@H]3CC[C@]12C)CO[C@@H]1OC[C@@H](O)[C@H](O)[C@H]1O | 2.84 | 0.98 | > 10 | 1.79 | 11.8
7 | C[C@H](CCC(=O)[C@@H](C)[C@H]1C(=O)C[C@H]2[C@@H]3CC=C4C[C@@H](O[C@@H]5O[C@@H](C)[C@H](O)[C@@H](O)[C@H]5O)CC[C@]4(C)[C@H]3CC[C@]12C)CO[C@@H]1O[C@H](CO)[C@@H](O)[C@H](O)[C@H]1O | 1.67 | 0.16 | > 10 | 1.66 | 15.1
8 | C[C@@H](CO)CCC(=O)[C@@H](C)[C@H]1C(=O)C[C@H]2[C@@H]3CC=C4C[C@@H](O)CC[C@]4(C)[C@H]3CC[C@]12C | 17.3 | 9.49 | > 10 | 13.8 | 22.3
9 | C[C@H](CCC(=O)[C@@H](C)[C@H]1C(=O)C[C@H]2[C@@H]3CC=C4C[C@@H](O[C@@H]5OC[C@@H](O)[C@H](O)[C@H]5O)CC[C@]4(C)[C@H]3CC[C@]12C)CO[C@@H]1OC[C@@H](O)[C@H](O)[C@H]1O | 16.3 | 6 | > 10 | 14.2 | 17.6
10 | CC(=O)OC[C@H](C)CCC(=O)[C@@H](C)[C@H]1C(=O)C[C@H]2[C@@H]3CC=C4CC(OC(=O)c5ccccc5)CC[C@]4(C)[C@H]3CC[C@]12C (stereo not given in full) | 11 | 8.33 | > 10 | 12.1 | 18.5
11 | C[C@H](CCC(=O)[C@@H](C)[C@H]1C(=O)C[C@H]2[C@@H]3CC=C4C[C@@H](O[C@@H]5O[C@H](CO)[C@@H](O)[C@H](O)[C@H]5O)CC[C@]4(C)[C@H]3CC[C@]12C)CO[C@@H]1O[C@H](CO)[C@@H](O)[C@H](O)[C@H]1O | 2.31 | 0.46 | > 10 | 1.78 | 3.46
12 | C[C@H](CCC(=O)[C@@H](C)[C@H]1C(=O)C[C@H]2[C@@H]3CC=C4C[C@@H](O[C@@H]5O[C@H](CO)[C@@H](O)[C@H](O)[C@H]5O)CC[C@]4(C)[C@H]3CC[C@]12C)CO[C@@H]1O[C@@H](C)[C@H](O)[C@@H](O)[C@H]1O | 9.94 | 3.42 | > 10 | 7.16 | 10.5
13 | C[C@H](CCC(=O)[C@@H](C)[C@H]1C(=O)C[C@H]2[C@@H]3CC=C4C[C@@H](O[C@@H]5O[C@@H](C)[C@H](O)[C@@H](O)[C@H]5O)CC[C@]4(C)[C@H]3CC[C@]12C)CO[C@@H]1OC[C@@H](O)[C@H](O)[C@H]1O | 20.7 | 13.6 | > 10 | 20.1 | 28.5
14 | C[C@H](CCC(=O)[C@@H](C)[C@H]1C(=O)C[C@H]2[C@@H]3CC=C4C[C@@H](O[C@@H]5OC[C@@H](O)[C@H](O)[C@H]5O)CC[C@]4(C)[C@H]3CC[C@]12C)CO[C@@H]1OC[C@H](O)[C@H](O)[C@H]1O | 10.6 | 0.68 | > 10 | 5.45 | 30.9
15 | C[C@H](CCC(=O)[C@@H](C)[C@H]1C(=O)C[C@H]2[C@@H]3CC=C4C[C@@H](O[C@@H]5OC[C@H](O)[C@H](O)[C@H]5O)CC[C@]4(C)[C@H]3CC[C@]12C)CO[C@@H]1O[C@@H](C)[C@H](O)[C@@H](O)[C@H]1O | 9.25 | 6.36 | > 10 | 7.51 | 10.3
16 | C[C@H](CCC(=O)[C@@H](C)[C@H]1C(=O)C[C@H]2[C@@H]3CC=C4C[C@@H](O[C@@H]5O[C@H](CO)[C@@H](O)[C@H](O)[C@H]5O)CC[C@]4(C)[C@H]3CC[C@]12C)CO[C@@H]1OC[C@@H](O)[C@H](O)[C@H]1O | 14.5 | 7.95 | > 10 | 12.8 | 24.8
17 | C[C@H](CCC(=O)[C@@H](C)[C@H]1C(=O)C[C@H]2[C@@H]3CC=C4C[C@@H](O[C@@H]5O[C@H](CO)[C@@H](O)[C@H](O)[C@H]5O)CC[C@]4(C)[C@H]3CC[C@]12C)CO[C@@H]1OC[C@H](O)[C@H](O)[C@H]1O | 3.67 | 0.87 | > 10 | 1.05 | 4.36
